# ChEMBL document CHEMBL5338732, “Perspective for Discovery of Small Molecule IL-6 Inhibitors through Study of Structure-Activity Relationships and Molecular Docking” (J Med Chem, 2023)
# Tests used:
# Type in all cases: functional, cell-based
# [1] = tested on: MDA-MB-435; experiment: Cytotoxicity against human MDA-MB-435 cells assessed as reduction in cell growth incubated for 72 hrs by MTT assay; settings: MDA-MB-435, 72 h
# [2] = Cytotoxicity against human p53HCT116 cells assessed as inhibition of cell growth incubated for 72 hrs by MTT assay; settings: p53HCT116, 72 h
# [3] = Cytotoxicity against human HCT116-p53-null cells assessed as inhibition of cell growth incubated for 72 hrs by MTT assay
# [4] = tested on: MH60; experiment: Cytotoxicity in mouse MH60 cells assessed as inhibition of recombinant human IL-6-induced growth incubated for 72 hrs by tetrazolium method; settings: MH60, 72 h
Structure (SMILES),IC50 [1] [nM],IC50 [2] [nM],IC50 [3] [nM],IC50 [4] [nM]
O=C(NNc1nc2cc(F)ccc2n2cccc12)c1cnccn1,400,400,400,–
CCCCC1=C(C)C(=O)[C@@](C)(CN2c3ccccc3[C@]3(O)CCO[C@H]23)C1=O,–,–,–,8000
CCCCC1=C(C)C(=O)[C@](C)(CN2c3ccccc3[C@]3(O)CCO[C@H]23)C1=O,–,–,–,30000
Cc1c(-c2ccc(O)cc2)n(Cc2ccc(OCCN3CCCCCC3)cc2)c2ccc(O)cc12 [BAZEDOXIFENE],–,–,–,3800
